Laboratory results published in patent US9382218B2, “N-heteroaryl substituted aniline derivatives as HCV-antivirals” (priority 2013, dated 2016).

Columns and labels:
Assay in all cases: microbe, parasite or virus in culture
[1] = tested on: HCVpp GT-1b (pseudotyped HCV particles, E1/E2 of GT1b Con1 strain); format: cell-based, Hepatitis C virus GT1b Con1 strain; settings: Hepatitis C virus, 72 h, read-out: HCVpp GT-1b (EC50, M)
[2] = tested on: VSVpp (pseudotyped VSV G particles); format: cell-based; settings: Vesicular stomatitis virus, 72 h, read-out: VSVpp (EC50, M)
[3] = tested on: HCVpp GT-1a (pseudotyped HCV particles, E1/E2 of GT1a H77 strain); format: cell-based, Hepatitis C virus GT1a H77 strain; settings: Hepatitis C virus, 72 h, read-out: HCVpp GT-1a (EC50, M)

SMILES | EC50 [1] [M] | EC50 [2] [M] | EC50 [3] [M]
Nc1cc(Nc2cc(Cl)c(F)c(Cl)c2)[nH]n1 [Compound 2, N^5-(3,5-Dichloro-4-fluoro-phenyl)-1H-pyrazole-3,5-diamine] | 5.22e-05 | 3.4e-05 | –
Nc1cc(Nc2cc(Cl)cc(Cl)c2)[nH]n1 [Compound 1, N^5-(3,5-Dichloro-phenyl)-1H-pyrazole-3,5-diamine] | 6.4e-05 | ≥ 0.0001 | 3.99e-05
Nc1noc(Nc2cc(Cl)cc(Cl)c2)n1 [Compound 5, N^5-(3,5-Dichloro-phenyl)-[1,2,4]oxadiazole-3,5-diamine] | 9.22e-06 | 9.8e-06 | 8.63e-06
Cc1nnc(Nc2cc(Cl)cc(Cl)c2)o1 [Compound 3, (3,5-Dichloro-phenyl)-(5-methyl-[1,3,4]oxadiazol-2-yl)-amine] | 3.58e-05 | ≥ 0.0001 | 3.93e-05
Nc1nc(Nc2cccc(C(F)(F)F)c2)no1 [Compound 4, N^3-(3-Trifluoromethyl-phenyl)-[1,2,4]oxadiazole-3,5-diamine] | 6.06e-06 | > 0.0001 | 1.36e-06
Nc1cnc(Nc2cc(Cl)cc(Cl)c2)o1 [Compound 11, N^2-(3,5-Dichloro-phenyl)-oxazole-2,5-diamine] | – | ≥ 0.0001 | 2.93e-05
Nc1nc(Nc2cc(Cl)cc(C(F)(F)F)c2)no1 [Compound 8, N^3-(3-Chloro-5-trifluoromethyl-phenyl)-[1,2,4]oxadiazole-3,5-diamine] | 9.03e-06 | ≥ 0.0001 | –
CS(=O)(=O)Nc1cccc(-c2c(Cl)cc(Nc3nc(N)no3)cc2C(F)(F)F)c1 [Compound 9, N-[4′-(3-Amino-[1,2,4]oxadiazol-5-ylamino)-6′-chloro-2′-trifluoromethyl-biphenyl-3-yl]-methanesulfonamide] | 2.99e-06 | 7.04e-06 | –
Nc1nc(Nc2cc(Cl)cc(Cl)c2)no1 [Compound 6, N^3-(3,5-Dichloro-phenyl)-[1,2,4]oxadiazole-3,5-diamine] | 1.03e-05 | 8.6e-05 | 3.55e-06
CS(=O)(=O)Nc1cccc(-c2c(Cl)cc(Nc3noc(N)n3)cc2C(F)(F)F)c1 [Compound 10, N-[4′-(5-Amino-[1,2,4]oxadiazol-3-ylamino)-6′-chloro-2′-trifluoromethyl-biphenyl-3-yl]-methanesulfonamide] | 1.53e-06 | 9.87e-06 | –
